In ChEMBL document CHEMBL4049396, “Enzymatic and solid-phase synthesis of new donepezil-based L- and d-glutamic acid derivatives and their pharmacological evaluation in models related to Alzheimer's disease and cerebral ischemia” (Eur J Med Chem, 2017):
Active and inactive are the calls of the source. No cut-off for these calls is given here.

Experiments:
Cholinesterase = Cholinesterase (Homo sapiens, UniProt P06276); experiment: Inhibition of human serum BuChE using butyrylthiocholine iodide as substrate pretreated for 5 mins followed by substrate addition measured for 5 mins by UV-Vis spectrophotometric method
Acetylcholinesterase = Acetylcholinesterase (Homo sapiens, UniProt P22303); experiment: Inhibition of recombinant human AChE expressed in HEK293 cells using acetylthiocholine iodide as substrate pretreated for 5 mins followed by substrate addition measured for 5 mins by UV-Vis spectrophotometric method
SH-SY5Y [1] = experiment: Cytotoxicity against human SH-SY5Y cells at 0.3 uM after 24 hrs by MTT assay; type: cell-based
SH-SY5Y [2] = experiment: Neuroprotective activity against rotenone/oligomycin A-induced mitochondrial oxidative stress in human SH-SY5Y cells assessed as cell survival at 0.3 uM pretreated for 24 hrs followed by rotenone/oligomycin A challenge measured after 24 hrs by MTT assay relative to control; type: functional; conditions: read-out: Survival
SH-SY5Y [3] = experiment: Neuroprotective activity against oxygen glucose deprivation/re-oxygenation-induced mitochondrial oxidative stress in human SH-SY5Y cells assessed as cell survival at 0.3 uM pretreated for 24 hrs followed by 4 hrs incubation under oxygen glucose deprivation medium and subsequent exposure to normoxic condition by MTT assay relative to control; type: functional; conditions: read-out: Survival
[4] = Antioxidant activity assessed as oxygen radical absorbance capacity at 10 uM relative to trolox; type: functional
physchem = conditions: PAMPA, pH 7.4
Description: Permeability of the compound at pH 7.4 at 1 mg/ml after 4 hrs by PAMPA-BBB assay

[5] = target: T1, Voltage-gated L-type calcium channel (Homo sapiens, UniProt Q13936+Q13698+Q01668+O60840); experiment: (§1) Inhibition of L-type voltage dependent calcium channel in human SH-SY5Y cells assessed as reduction in K+-induced cytosolic free calcium transient current preincubated for 15 mins followed by potassium challenge measured for 14 secs by Fluo-4AM dye based fluorescence assay; type: cell-based
[6] = Inhibition of L-type voltage dependent calcium channel in bovine Chromaffin cells assessed as reduction in K+-induced cytosolic free calcium transient current preincubated for 5 mins followed by potassium challenge measured by Fluo-4AM dye based fluorescence assay; type: cell-based; conditions: Bos taurus
Bos taurus [7] = species on record: Bos taurus; experiment: Inhibition of L-type voltage dependent calcium channel in bovine Chromaffin cells assessed as reduction in K+-induced calcium current amplitude at 10 uM preincubated for 5 mins followed by potassium challenge measured by Fluo-4AM dye based fluorescence assay relative to control; type: cell-based
Bos taurus [8] = species on record: Bos taurus; experiment: Inhibition of L-type voltage dependent calcium channel in bovine Chromaffin cells assessed as reduction in K+-induced calcium transient current area at 10 uM preincubated for 5 mins followed by potassium challenge measured by Fluo-4AM dye based fluorescence assay relative to control; type: cell-based
Hippocampus [9] = experiment: Neuroprotective activity in oxygen glucose deprivation/re-oxygenation-induced Sprague-Dawley rat hippocampal slice cerebral ischemia model assessed as cell viability at 3 uM incubated for 2 hrs under normoxic condition by MTT assay (reference value: 40%); type: functional
[10] = Antioxidant activity assessed as oxygen radical absorbance capacity at 10 uM; type: functional
Homo sapiens = species on record: Homo sapiens; experiment: Ratio of IC50 for recombinant human AChE expressed in HEK293 cells to IC50 for human serum BuChE; type: cell-based
[11] = target: T1, Voltage-gated L-type calcium channel; experiment: as §1, with “current at 100 uM” for “current”, “assay relative to control” for “assay”; type: cell-based; conditions: 14 s
Hippocampus [12] = experiment: Neuroprotective activity in oxygen glucose deprivation/re-oxygenation-induced Sprague-Dawley rat hippocampal slice cerebral ischemia model assessed as cell viability at 1 uM incubated for 2 hrs under normoxic condition by MTT assay (reference value: 40%); type: functional
Hippocampus [13] = experiment: Neuroprotective activity in oxygen glucose deprivation/re-oxygenation-induced Sprague-Dawley rat hippocampal slice cerebral ischemia model assessed as increase in cell viability incubated for 2 hrs under normoxic condition by MTT assay; type: functional, tissue-based

Sequence of Acetylcholinesterase (P22303 whole entry): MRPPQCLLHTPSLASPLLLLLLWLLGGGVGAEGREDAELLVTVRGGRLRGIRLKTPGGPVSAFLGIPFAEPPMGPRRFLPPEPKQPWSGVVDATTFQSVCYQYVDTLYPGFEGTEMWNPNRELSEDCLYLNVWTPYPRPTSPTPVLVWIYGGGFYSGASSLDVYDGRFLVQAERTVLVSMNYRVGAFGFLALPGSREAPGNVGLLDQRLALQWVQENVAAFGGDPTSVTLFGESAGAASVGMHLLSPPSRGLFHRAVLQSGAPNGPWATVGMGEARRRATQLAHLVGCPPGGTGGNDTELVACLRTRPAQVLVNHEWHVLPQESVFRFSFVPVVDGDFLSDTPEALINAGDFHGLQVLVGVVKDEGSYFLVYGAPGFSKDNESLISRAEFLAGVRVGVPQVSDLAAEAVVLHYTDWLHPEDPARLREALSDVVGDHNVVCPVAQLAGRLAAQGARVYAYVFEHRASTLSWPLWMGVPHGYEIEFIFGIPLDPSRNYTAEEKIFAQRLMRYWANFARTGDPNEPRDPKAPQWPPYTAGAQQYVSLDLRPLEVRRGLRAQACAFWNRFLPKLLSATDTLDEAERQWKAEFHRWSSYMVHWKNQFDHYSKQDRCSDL
Sequence of Cholinesterase (P06276 whole entry): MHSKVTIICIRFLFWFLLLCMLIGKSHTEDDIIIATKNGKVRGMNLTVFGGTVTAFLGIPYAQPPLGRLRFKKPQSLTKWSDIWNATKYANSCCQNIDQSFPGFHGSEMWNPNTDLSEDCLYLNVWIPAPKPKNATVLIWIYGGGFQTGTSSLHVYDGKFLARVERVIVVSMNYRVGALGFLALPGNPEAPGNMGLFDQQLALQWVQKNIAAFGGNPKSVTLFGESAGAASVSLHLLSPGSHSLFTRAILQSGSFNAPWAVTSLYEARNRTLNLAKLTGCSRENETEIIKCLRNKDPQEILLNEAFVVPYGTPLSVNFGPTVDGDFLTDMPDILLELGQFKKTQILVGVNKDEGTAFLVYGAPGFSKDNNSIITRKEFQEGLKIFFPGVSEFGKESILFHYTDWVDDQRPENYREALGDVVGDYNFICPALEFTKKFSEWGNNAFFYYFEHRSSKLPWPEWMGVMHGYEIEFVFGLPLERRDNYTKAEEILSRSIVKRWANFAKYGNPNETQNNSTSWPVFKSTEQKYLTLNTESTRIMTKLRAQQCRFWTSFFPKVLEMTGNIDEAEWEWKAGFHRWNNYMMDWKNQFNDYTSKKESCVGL

SMILES | IC50 (Cholinesterase) | IC50 (Acetylcholinesterase) | Activity (SH-SY5Y [1]) | viability at 0.3 µM (SH-SY5Y [2]) | viability at 0.3 µM (SH-SY5Y [3]) | Activity [4] | Papp at 4 h, 1 mg/ml (physchem) | IC50 [5] | IC50 [6] | inhibition (Bos taurus [7]) | inhibition (Bos taurus [8]) | Activity (Hippocampus [9]) | Activity [10] | Ratio IC50 (Homo sapiens) | %max [11] | Activity (Hippocampus [12]) | Activity (Hippocampus [13])
O=C(CC[C@H](NC(=O)c1c[nH]c2ccccc12)C(=O)O)NCCC1CCN(Cc2ccccc2)CC1 | 71 µM | 6.4 µM | Non-Toxic | 34.6% | 48.4% | 70 to 73% | 1.8 ×10⁻⁶ cm/s |  |  |  |  |  |  |  |  |  | 
CCCCCCOC(=O)[C@H](CCC(=O)NCCC1CCN(Cc2ccccc2)CC1)NC(=O)c1ccccc1 |  |  | Non-Toxic | 44.1% | 53.4% |  |  | 14.1 µM | 5.31 µM | 40% | 80% | 55% | inactive |  |  |  | 
O=C(CC[C@H](NC(=O)c1ccccc1)C(=O)O)NCCC1CCN(Cc2ccccc2)CC1 | > 10 µM | 0.76 µM | Non-Toxic | 46.5% | 50.6% |  | 3.5 ×10⁻⁶ cm/s |  |  |  |  |  | inactive |  |  |  | 
CCOC(=O)[C@H](CCC(=O)NCCC1CCN(Cc2ccccc2)CC1)NC(=O)c1c[nH]c2ccccc12 | 0.3 µM | 1.9 µM | Non-Toxic | 39.5% | 42.4% | 70 to 73% | 4.5 ×10⁻⁶ cm/s |  |  |  |  |  |  |  |  |  | 
CCCCCCOC(=O)[C@H](CCC(=O)NCCC1CCN(Cc2ccccc2)CC1)NC(=O)c1c[nH]c2ccccc12 | 1.85 µM | 3.04 µM | Non-Toxic | 22.1% | 31.8% | 70 to 73% | 9.6 ×10⁻⁶ cm/s |  |  |  |  |  |  |  |  |  | 
O=C(CC[C@@H](NC(=O)c1ccccc1)C(=O)O)NCCC1CCN(Cc2ccccc2)CC1 | 82 µM | 20 µM | Non-Toxic | 22.6% | 38.5% |  | 4.6 ×10⁻⁶ cm/s |  |  |  |  |  | inactive |  |  |  | 
CCCCCCOC(=O)[C@@H](CCC(=O)NCCC1CCN(Cc2ccccc2)CC1)NC(=O)c1ccccc1 | 0.36 µM | 0.89 µM | Non-Toxic | 13% | 32.2% |  | 13.9 ×10⁻⁶ cm/s |  |  |  |  |  | inactive |  |  |  | 
CCOC(=O)[C@@H](CCC(=O)NCCC1CCN(Cc2ccccc2)CC1)NC(=O)c1ccccc1 | 0.39 µM | 0.5 µM | Non-Toxic | 15.1% | 39.8% |  | 6.6 ×10⁻⁶ cm/s |  |  |  |  |  | inactive |  |  |  | 
COc1ccc2[nH]cc(CCNC(C)=O)c2c1 [MELATONIN] |  |  |  | 33.4% | 31.4% |  |  |  |  |  |  |  |  |  |  |  | 
CCOC(=O)CC[C@@H](NC(=O)OCc1ccccc1)C(=O)OCC | > 10 µM | > 10 µM | Non-Toxic | 34.7% | 47.1% |  |  |  |  |  |  |  | inactive |  |  |  | 
COc1ccc2cc(C(=O)N[C@@H](CCC(=O)NCCC3CCN(Cc4ccccc4)CC3)C(=O)O)ccc2c1 | 97 µM | 15.2 µM | Non-Toxic | 35% | 45% |  |  |  |  |  |  |  | inactive |  |  |  | 
CCOC(=O)[C@H](CCC(=O)NCCC1CCN(Cc2ccccc2)CC1)NC(=O)c1ccc2cc(OC)ccc2c1 | 3.8 µM | 0.89 µM | Non-Toxic | 25.3% | 37.7% |  | 8.3 ×10⁻⁶ cm/s |  |  |  |  |  | inactive |  |  |  | 
CCOC(=O)CC[C@@H](NC(=O)OCc1ccccc1)C(=O)NCCC1CCN(Cc2ccccc2)CC1 | 0.17 µM | 3 µM | Non-Toxic | 31.6% | 47% |  | 16.7 ×10⁻⁶ cm/s |  |  |  |  |  | inactive | 10 |  |  | 
CCOC(=O)CC[C@H](NC(=O)OCc1ccccc1)C(=O)NCCC1CCN(Cc2ccccc2)CC1 | 0.4 µM | 4.99 µM | Non-Toxic | 35.2% | 42.7% |  | 21 ×10⁻⁶ cm/s | 90.1 µM |  |  |  | 69% | inactive | 10 | 63% | 48% | Dose-dependent effect
CCOC(=O)[C@H](CCC(=O)NCCC1CCN(Cc2ccccc2)CC1)NC(=O)c1ccccc1 | 1.3 µM | 0.85 µM | Non-Toxic | 38.6% | 50.9% |  | 5.2 ×10⁻⁶ cm/s |  |  |  |  |  | inactive |  |  |  | 
CCOC(=O)CC[C@H](NC(=O)OCc1ccccc1)C(=O)OCC | > 10 µM | > 10 µM | Non-Toxic | 37.3% | 51.6% |  |  |  |  |  |  |  | inactive |  |  |  | 
